Data reported in patent US8685924B2, “Preventives/remedies for stress urinary incontinence and method of screening the same” (Takeda Pharmaceutical Company Limited, priority 2004, dated 2014).

Experiments:
Type in all cases: in vivo, rat
[1] = system: urethane-anesthetized female rats; assay: Leak point pressure by direct compressing of the bladder (Example 4); conditions: for leak point pressure after drug administration / leak point pressure increase / leak point pressure before drug administration: i.v., mean ± SEM; for leak point pressure after drug administration: 20 min later; for leak point pressure before drug administration: baseline; for effect on leak point pressure: intravenous administration
Summary of the method: (§1)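 Spinal-cord-transected (T8-9), urethane-anesthetized SD female rats (180-350 g); bladder filled with 0.1% Evans blue (0.4 mL) and compressed bilaterally until leakage, intravesical pressure at leakage taken as leak point pressure. Drugs given i.v., re-measured 20 min later; for antagonism, RS-102221 or SB221284 given i.v. 5 min before WAY-161503/WAY-163909, reading 10 min after agonist.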

[2] = system: urethane-anesthetized female rats; assay: Antagonism of the leak point pressure increase by WAY-161503 / WAY-163909, direct bladder compression method (Example 4); conditions: agonist 0.3 mg/kg, i.v., antagonist: solvent, mean ± SEM
Summary of the method: as §1

[3] = system: urethane-anesthetized female rats; assay: Urethral contractile responses induced by intravesical pressure increase (Example 5); conditions: for urethral contractile responses before administration: baseline; for urethral contractile responses before administration / urethral contractile responses after administration: mean ± SEM of 5 cases; for urethral contractile responses after administration: 5 min later; for effect on urethral contractile responses during elevation of intravesical pressure: intravenous, duloxetine 10 mg/kg, WAY161503 0.3 mg/kg
Experimental: (§2) SD female rats (body weight 180-350 g) were anesthetized with urethane (Wako Pure Chemical Industries, Ltd.), and the spinal cord was transected at T8-9 level to eliminate the reflex voiding.
Halothane (Takeda Pharmaceutical Company Limited) anesthesia was added when necessary during operation. After laparotomy, the bladder neck was tied with a suture thread and then a catheter (PE-90, Clay Adams) was inserted into the bladder and secured with a ligature. The other end of the bladder catheter was connected to a pressure transducer and saline storage reservoir (60 ml syringe) via a three-way stopcock. A microchip-transducer-catheter (SPR-524, Millar Instruments Inc.) was inserted from the meatus urethra. toward the bladder. Using the scale written on the catheter surface, the transducer part was set in the urethra at 12.5-15.0 mm from the urethral orifice with its side-mounted sensor facing the inner urethral surface in the 3 o'clock position.
Topical pressure changes in the urethra (hereinafter to be conveniently indicated as intraurethral pressure) measured by a microchip-transducer were input in a computer via an amplifier (blood pressure amplification unit AP-641G; NIHON KODEN) and an analog-to-digital converter (MP-100; biopack; sampled at 500 Hz) and recorded on a hard disc. […] The response of the urethra induced by the intravesical pressure increase was measured 3 times and the average of the final two measures was taken as the value before the drug administration.
The evaluation parameters were a resting intraurethral pressure and a reflex urethral contractile responses. An average intraurethral pressure per 1 sec was calculated, and the value immediately before intravesical pressure increase was taken as the resting intraurethral pressure, and the value obtained by subtracting the resting intraurethral pressure from the maximum value during intravesical pressure increase was taken as the urethral responses. After measurement of the response before drug administration, WAY-161503 (0.3 mg/kg), which is a serotonin 5-HT2C receptor agonist, or duloxetine (10 mg/kg) was intravenously administered, the intravesical pressure was increased again 5 min later, and the responses of the urethra were measured. The both drugs were dissolved in DMA-PEG400 (1:1), and administered at 0.5 ml/kg.

[4] = system: urethane-anesthetized female rats; assay: Leak point pressure by intravesical pressure-clamp method (Example 6); conditions: for leak point pressure after drug administration / leak point pressure before drug administration: i.v., mean ± SEM; for leak point pressure after drug administration: 10 min later; for leak point pressure before drug administration: baseline; for effect on leak point pressure: intravesical pressure-clamp method
Experimental: as §2
Halothane (Takeda Pharmaceutical Company Limited) anesthesia was added when necessary during operation. After laparotomy, the bladder neck was tied with a suture thread and then a catheter (PE-90, Clay Adams) was inserted into the bladder and secured with a ligature. The other end of the bladder catheter was connected to a pressure transducer and saline storage reservoir (60 ml syringe) via a three-way cock.
Changes in the intravesical pressure measured by a transducer were input in a computer via an amplifier (blood pressure amplification unit AP-641G; NIHON KODEN) and an analog-to-digital cinverter (MP-100; biopack) and recorded on a hard disc. The intravesical pressure was raised for 90 sec by setting the saline storage reservoir at a given height, and the presence or absence of saline leakage from the urethral orifice was observed. The intravesical pressure was raised every 2.5 cmH2O and, after 90 sec observation period, the intravesical pressure was once returned to 0 cmH2O, after which the next step was performed. The intravesical pressure at which the saline leakage from the urethral orifice was observed was taken as the leak point pressure. The measurement of the leak point pressure was repeated and the average of the final three measures was taken as the value before the drug administration. The drug was intravenously administered, and the leak point pressure was measured again 10 min later. The drug was dissolved in DMA-PEG400 (1:1), and administered at 0.5 ml/kg.

Structure (SMILES) | leak point pressure after drug administration ([1]; 0.03 mg/kg) | leak point pressure increase ([1]; 0.03 mg/kg) | leak point pressure after drug administration ([1]; 0.1 mg/kg) | leak point pressure increase ([1]; 0.1 mg/kg) | leak point pressure after drug administration ([1]; 0.3 mg/kg) | leak point pressure increase ([1]; 0.3 mg/kg) | leak point pressure before drug administration ([1]; dose group 0.03 mg/kg) | leak point pressure before drug administration ([1]; dose group 0.1 mg/kg) | leak point pressure before drug administration ([1]; dose group 0.3 mg/kg) | effect on leak point pressure [1] | effect on urethral contractile responses during elevation of intravesical pressure [3] | leak point pressure after drug administration ([4]; 0.01 mg/kg) | leak point pressure before drug administration ([4]; dose group 0.01 mg/kg) | effect on leak point pressure [4] | also measured
O=C1Nc2cc(Cl)c(Cl)cc2N2CCNCC12 (stereo not drawn) [WAY-161503] | 62.0 ± 5.8 cmH2O | 7.1 ± 2.4 cmH2O | 66.1 ± 2.8 cmH2O | 11.5 ± 1.8 cmH2O | 77.7 ± 3.6 cmH2O | 22.0 ± 3.4 cmH2O | 54.9 ± 6.1 cmH2O | 54.7 ± 2.5 cmH2O | 55.7 ± 3.8 cmH2O | dose-dependently increased the leak point pressure | significant increase in the urethral contractile responses | 37.3 ± 3.5 cmH2O | 33.4 ± 3.4 cmH2O | increased the leak point pressure | leak point pressure after drug administration [2]: 87.1 ± 4.3 cmH2O; leak point pressure increase [2]: 17.4 ± 1.9 cmH2O; leak point pressure before drug administration ([2]; baseline): 69.7 ± 3.9 cmH2O; urethral contractile responses before administration ([3]; increase in intravesical pressure to 25 cmH2O, dose group 0.3 mg/kg i.v.): 7.0 ± 1.4 cmH2O; urethral contractile responses before administration ([3]; increase in intravesical pressure to 50 cmH2O, dose group 0.3 mg/kg i.v.): 12.8 ± 2.4 cmH2O; urethral contractile responses after administration ([3]; increase in intravesical pressure to 25 cmH2O, 0.3 mg/kg i.v.): 11.3 ± 1.8 cmH2O; urethral contractile responses after administration ([3]; increase in intravesical pressure to 50 cmH2O, 0.3 mg/kg i.v.): 19.2 ± 3.4 cmH2O; leak point pressure after drug administration ([4]; 0.03 mg/kg): 41.2 ± 3.0 cmH2O; leak point pressure after drug administration ([4]; 1 mg/kg): 43.6 ± 3.2 cmH2O; leak point pressure before drug administration ([4]; dose group 0.03 mg/kg): 34.8 ± 3.2 cmH2O; leak point pressure before drug administration ([4]; dose group 1 mg/kg): 34.8 ± 3.0 cmH2O
CNCC[C@H](Oc1cccc2ccccc12)c1cccs1 [duloxetine] | 67.8 ± 2.9 cmH2O | 6.5 ± 1.6 cmH2O | 72.6 ± 3.4 cmH2O | 9.3 ± 1.2 cmH2O | 73.3 ± 3.9 cmH2O | 8.8 ± 2.1 cmH2O | 61.3 ± 3.3 cmH2O | 63.3 ± 3.8 cmH2O | 64.5 ± 3.5 cmH2O | increased the leak point pressure | enhanced the urethral contractile responses | 42.8 ± 4.9 cmH2O | 37.0 ± 4.5 cmH2O | increased the leak point pressure | leak point pressure after drug administration ([1]; 0.01 mg/kg): 60.5 ± 5.1 cmH2O; leak point pressure increase ([1]; 0.01 mg/kg): 2.4 ± 2.6 cmH2O; leak point pressure after drug administration ([1]; 1 mg/kg): 75.0 ± 4.0 cmH2O; leak point pressure increase ([1]; 1 mg/kg): 13.9 ± 1.8 cmH2O; leak point pressure before drug administration ([1]; dose group 0.01 mg/kg): 58.1 ± 6.0 cmH2O; leak point pressure before drug administration ([1]; dose group 1 mg/kg): 61.1 ± 3.4 cmH2O; urethral contractile responses before administration ([3]; increase in intravesical pressure to 25 cmH2O, dose group 10 mg/kg i.v.): 8.5 ± 0.5 cmH2O; urethral contractile responses before administration ([3]; increase in intravesical pressure to 50 cmH2O, dose group 10 mg/kg i.v.): 13.4 ± 2.1 cmH2O; urethral contractile responses after administration ([3]; increase in intravesical pressure to 25 cmH2O, 10 mg/kg i.v.): 11.4 ± 0.6 cmH2O; urethral contractile responses after administration ([3]; increase in intravesical pressure to 50 cmH2O, 10 mg/kg i.v.): 17.8 ± 2.2 cmH2O; leak point pressure after drug administration ([4]; 0.001 mg/kg): 38.2 ± 3.7 cmH2O; leak point pressure before drug administration ([4]; dose group 0.001 mg/kg): 36.5 ± 4.2 cmH2O
